Data published in patent publication US10336762B2 (priority 2017, dated 2019).
Like-named read-outs stand apart in the source and are kept apart here.

How the values were obtained:
IRAK4 enzyme = IRAK4 enzyme (Homo sapiens (Human), UniProt Q9NWZ3); assay: biochemical; type: biochemical; settings: IRAK4 enzyme, 500 μM ATP
TNFα = assay: cells; type: cell-based, human; settings: LPS-stimulated human monocytes, read-out: EC50 TNF
[1] = Homo sapiens, Monocyte, TNFα content
[2] = Homo sapiens, Monocyte, TNFα by TR-FRET

Chain of IRAK4 enzyme (Q9NWZ3 whole entry): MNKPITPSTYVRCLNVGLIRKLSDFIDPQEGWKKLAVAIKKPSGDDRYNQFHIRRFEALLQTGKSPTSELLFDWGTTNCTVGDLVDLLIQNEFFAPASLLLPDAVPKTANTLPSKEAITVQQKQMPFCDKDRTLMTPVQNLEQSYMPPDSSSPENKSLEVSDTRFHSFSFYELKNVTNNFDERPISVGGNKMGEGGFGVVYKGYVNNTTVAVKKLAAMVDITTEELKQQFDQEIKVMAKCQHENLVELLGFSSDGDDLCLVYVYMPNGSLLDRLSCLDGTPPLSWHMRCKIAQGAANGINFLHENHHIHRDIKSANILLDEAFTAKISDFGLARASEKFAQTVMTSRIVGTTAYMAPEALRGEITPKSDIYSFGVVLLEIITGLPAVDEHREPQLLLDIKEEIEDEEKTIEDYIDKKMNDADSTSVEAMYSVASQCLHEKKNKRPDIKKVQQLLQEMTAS

SMILES	IC50 (IRAK4 enzyme; TR-FRET) [nM]	EC50 (TNFα; [1]) [nM]	IC50 (IRAK4 enzyme; TR-FRET (HTRF)) [nM]	EC50 (TNFα; [2]) [nM]	EC50 (TNFα; TNFα by TR-FRET) [nM]
CC(C)Nc1cc(-c2ccc3cc(C#N)cnn23)ncc1C(=O)NCCC(C)(C)O [Example 41, 6-(3-cyanopyrrolo[1,2-b]pyridazin-7-yl)-N-(3-hydroxy-3-methylbutyl)-4-(isopropylamino) nicotinamide]	< 1	78			
CC(C)(O)[C@H](F)CNC(=O)c1cnc(-c2ccc3cc(C#N)cnn23)cc1Nc1ccc(-n2ccccc2=O)cc1 [Example 385, (R)-6-(3-cyanopyrrolo[1,2-b]pyridazin-7-yl)-N-(2-fluoro-3-hydroxy-3-methylbutyl)-4-((4-(2-oxopyridin-1(2H)-yl)phenyl)amino)nicotinamide]	< 1	36			
CC(C)(O)[C@H](F)CNC(=O)c1cnc(-c2ccc3cc(C#N)cnn23)cc1N[C@H]1CC[C@@H](O)C1 [Example 520, 6-(3-cyanopyrrolo[1,2-b]pyridazin-7-yl)-N-((R)-2-fluoro-3-hydroxy-3-methylbutyl)-4-(((1S,3R)-3-hydroxycyclopentyl)amino)nicotinamide]		45	< 1		
N#Cc1cnn2c(-c3cc(NC45CCC(O)(CC4)CC5)c(C(=O)NCc4ccncc4)cn3)ccc2c1 [Example 932, 6-(3-cyanopyrrolo[1,2-b]pyridazin-7-yl)-4-((4-hydroxybicyclo[2.2.2]octan-1-yl)amino)-N-(pyridin-4-ylmethyl) nicotinamide]	3			168	
CC(C)(C)C(=O)NC[C@H]1C[C@H](Nc2cc(-c3ccc4cc(C#N)cnn34)ncc2C(=O)NC[C@@H](F)C(C)(C)O)C1 [Example 824, 6-(3-cyanopyrrolo[1,2-b]pyridazin-7-yl)-N-((R)-2-fluoro-3-hydroxy-3-methylbutyl)-4-(((1r,3R)-3-(pivalamidomethyl)cyclo-butyl)amino)nicotinamide]	< 1			39	
CC(C)(O)[C@H](F)CNC(=O)c1cnc(-c2ccc3cc(C#N)cnn23)cc1N[C@H]1C[C@H](Cn2ccccc2=O)C1 [Example 729, 6-(3-cyanopyrrolo[1,2-b]pyridazin-7-yl)-N-((R)-2-fluoro-3-hydroxy-3-methylbutyl)-4-(((1r,3R)-3-((2-oxopyridin-1(2H)-yl)methyl)cyclobutyl)amino)nicotinamide]		58	1		
CC(C)(O)[C@H](F)CNC(=O)c1cnc(-c2ccc3cc(C#N)cnn23)cc1Nc1ccc(N2CCN(C3COC3)CC2)nc1 [Example 871, (R)-6-(3-cyanopyrrolo[1,2-b]pyridazin-7-yl)-N-(2-fluoro-3-hydroxy-3-methylbutyl)-4-((6-(4-(oxetan-3-yl)piperazin-1-yl)pyridin-3-yl)amino)nicotinamide]	1			51	
Cc1cn2ccc(Nc3cc(-c4ccc5cc(C#N)cnn45)ncc3C(=O)NC[C@@H](F)C(C)(C)O)cc2n1 [Example 563, (R)-6-(3-cyanopyrrolo[1,2-b]pyridazin-7-yl)-N-(2-fluoro-3-hydroxy-3-methylbutyl)-4-((2-methyl-imidazo[1,2-a]pyridin-7-yl)amino)nicotinamide]		114	2		
COc1cnc(Nc2cc(-c3ccc4cc(C#N)cnn34)ncc2C(=O)NC[C@@H](F)C(C)(C)O)cn1 [Example 840, (R)-6-(3-cyanopyrrolo[1,2-b]pyridazin-7-yl)-N-(2-fluoro-3-hydroxy-3-methylbutyl)-4-((5-methoxypyrazin-2-yl)amino)nicotinamide]	< 1			17	
CC(C)(O)[C@H](F)CNC(=O)c1cnc(-c2ccc3cc(C#N)cnn23)cc1NC1CC2(CCN2CC(F)(F)F)C1 (stereo partly drawn) [Example 910, 6-(3-cyanopyrrolo[1,2-b]pyridazin-7-yl)-N-((R)-2-fluoro-3-hydroxy-3-methylbutyl)-4-(((4S,6r)-1-(2,2,2-trifluoroethyl)-1-azaspiro[3.3]heptan-6-yl)amino)nicotinamide]	10				1210
CNC(=O)c1cnc(-c2ccc3cc(C#N)cnn23)cc1NC12CC(NC(=O)OC)(C1)C2 [Example 488, methyl (3-((2-(3-cyano-pyrrolo[1,2-b]pyridazin-7-yl)-5-(methylcarbamoyl)pyridin-4-yl)amino)bicyclo[1.1.1]pentan-1-yl)carbamate]		71	1		
CC(C)(O)[C@H](F)CNC(=O)c1cnc(-c2ccc3cc(C#N)cnn23)cc1Nc1cccc(-c2ncc[nH]2)c1 [Example 221, (R)-4-((3-(1H-imidazol-2-yl)phenyl)amino)-6-(3-cyanopyrrolo[1,2-b]pyridazin-7-yl)-N-(2-fluoro-3-hydroxy-3-methylbutyl)nicotinamide]	< 1	98			
Cn1nccc1CNC(=O)c1cnc(-c2ccc3cc(C#N)cnn23)cc1NC12CCC(O)(CC1)CC2 [Example 934, 6-(3-cyanopyrrolo[1,2-b]pyridazin-7-yl)-4-((4-hydroxybicyclo[2.2.2]octan-1-yl)amino)-N-((1-methyl-1H-pyrazol-5-yl)methyl)nicotinamide]	3			271	
CC1(C)C(=O)Nc2cc(Nc3cc(-c4ccc5cc(C#N)cnn45)ncc3C(=O)NC[C@@H](F)C(C)(C)O)ccc21 [Example 565, (R)-6-(3-cyanopyrrolo[1,2-b]pyridazin-7-yl)-4-((3,3-dimethyl-2-oxoindolin-6-yl)amino)-N-(2-fluoro-3-hydroxy-3-methylbutyl) nicotinamide]		23	< 1		
COC(=O)C1CC2(CC(NC(=O)c3cnc(-c4ccc5cc(C#N)cnn45)cc3NC(C)C)C2)C1 (centres unmarked) [Example 60, methyl 6-(6-(3-cyano-pyrrolo[1,2-b]pyridazin-7-yl)-4-(isopropylamino)nicotinamido) spiro[3.3]heptane-2-carboxylate]	1	512			
COC(=O)NC[C@H]1C[C@@H](Nc2cc(-c3ccc4cc(C#N)cnn34)ncc2C(=O)NC[C@@H](F)C(C)(C)O)C1 [Example 698, methyl (((1S,3s)-3-((2-(3-cyanopyrrolo[1,2-b]pyridazin-7-yl)-5-(((R)-2-fluoro-3-hydroxy-3-methylbutyl)carbamoyl)pyridin-4-yl)amino)cyclo-butyl)methyl)carbamate]		201	3		
CC(C)(O)[C@H](F)CNC(=O)c1cnc(-c2ccc3cc(C#N)cnn23)cc1Nc1ccc2c(c1)OC(F)(F)O2 [Example 651, (R)-6-(3-cyanopyrrolo[1,2-b]pyridazin-7-yl)-4-((2,2-difluorobenzo[d][1,3]dioxol-5-yl)amino)-N-(2-fluoro-3-hydroxy-3-methylbutyl) nicotinamide]		188	5		
CC(C)(O)[C@H](F)CNC(=O)c1cnc(-c2ccc3cc(C#N)cnn23)cc1NC12CC(C(N)=O)(C1)C2 [Example 373, (R)-4-((3-carbamoylbicyclo[1.1.1]pentan-1-yl)amino)-6-(3-cyanopyrrolo[1,2-b]pyridazin-7-yl)-N-(2-fluoro-3-hydroxy-3-methylbutyl)nicotinamide]	< 1	141			
CC(C)(O)[C@H](F)CNC(=O)c1cnc(-c2ccc3cc(C#N)cnn23)cc1NC1CC2CCC(C1)N2 (stereo partly drawn) [Example 14, 4-(((1R,3r,5S)-8-azabicyclo[3.2.1]octan-3-yl)amino)-6-(3-cyanopyrrolo[1,2-b]pyridazin-7-yl)-N-((R)-2-fluoro-3-hydroxy-3-methylbutyl)nicotinamide]	3	626			
